Type in all cases: cell-based
The test system of experiment [1] is HCT116 colon adenocarcinoma cells. Kind of experiment: Binding of 32P-labeled decapeptides to cell lines. To be noted: two-hour incubation, washes; average. Here is the method: (§1) Assay of the binding of ^32P-labeled decapeptides to cell lines: Cell lines were grown in complete medium containing 10% bovine fetal serum (heat inactivated). In each well of a 96-well plate, 10,000 cells from various cell lines were grown overnight in complete medium. Ten μl of the labeled-peptide in 1×PBS and 90 μl of complete medium were added to each well and incubated at 37° C. at various times of up to two hours. The peptide-medium was removed and one μl added to 100 ul gel loading buffer and counted by scintillation counting for the probe control or run on a polyacrylamide-SDS gel (Biorad). The adherent cells were briefly and gently washed with complete medium three times and some wells were assayed immediately by adding 100 μl of gel loading buffer to each well and run on a gel or counted in a scintillation counter. Other wells had 100 μl complete medium added and incubated for a further time period. Samples were either counted in a liquid scintillation counter or run on polyacrylamide-SDS gels, exposed to x-ray film, and the film developed.

Experiment [2] concerns Caco-2 colon adenocarcinoma cell line. As to the kind of experiment: Binding of 32P-labeled decapeptides to cell lines. Here is the method:
as §1

Experiment [3] relates to HeLa S3 cervical cancer cells. Kind of experiment: Binding of 32P-labeled decapeptides to cell lines. Particulars: two-hour incubation, washes; average. Here is the method: as §1
The subject of experiment [4] is human embryonic kidney cell line 293H. Kind of experiment: Binding of 32P-labeled decapeptides to cell lines. To be noted: two-hour incubation, washes. Here is the method: as §1
The test system of experiment [5] is HT1080 fibrosarcoma cells. Kind of experiment: Binding of 32P-labeled decapeptides to cell lines. Particulars: two-hour incubation, washes. Here is the method: as §1
Experiment [6] relates to eleven nonbinding cell lines. Kind of experiment: Binding of 32P-labeled decapeptides to cell lines. Here is the method:
as §1

Experiment [7] relates to colon adenocarcinoma cell lines (Caco-2, HCT15, HCT116, LoVo, HT29). As to the kind of experiment: Binding and overnight release/retention of 32P-labeled decapeptide. Particulars: two-hour incubation. Here is the method:
as §1

The mark [8] stands for this setting: two hours incubation, three wash steps, overnight incubation in medium.

Bounds are passed on as bounds.

For “GSRRASVASA (synthetic or recombinant sequence) [MA5]”, the “32P counts per minute (cpm) remaining bound” value in experiment [1] is 131,998 cpm per 10,000 cells; in experiment [2] (two-hour incubation, washes with complete medium, average of triplicate wells), 298,639 cpm per 10,000 cells; in experiment [3], 534 cpm per 10,000; in experiment [4] it was 429 cpm per 10,000 cells; in experiment [5], 367 cpm. Moreover, the “retained counts per hour per cell” value in experiment [2] (after overnight incubation) was 348 counts per hour, per cell. Further, the “retained counts extrapolated per cell per day” value in experiment [2] (after overnight incubation, extrapolated) is “over 8,300 counts per cell per day”. Also, in experiment [2] (after two-hour incubation), the “percentage of the total radioactive counts present in the incubation well retained by cells” value was “approximately 18%”. In addition, the “time to plateau of 32P-peptide release into medium” value in experiment [2] (after washing) is not above 24 h. Besides, the “retained counts per cell extrapolated over a potential 2-week exposure period” value in experiment [2] (extrapolated over 2 weeks) is reported as “over 87,000 counts per cell”. Moreover, the “time by which the majority of total released counts are released” value in experiment [2] (release after washing over a 48-hour time period) is recorded as “released by nine hours of incubation”. Moreover, in experiment [2] (triplicate wells containing 10,000 cells each, three washes, overnight at 37 C), the “cpm retained by cells after overnight incubation” value was 58,305 cpm. Also, the “relative binding among decapeptides (in words)” value in experiment [2] (two hour incubation) was “most efficient binding decapeptide”. The “radioactive dose transferred per cell” value in experiment [2] (two hour incubation, wash, immediate determination of retained radioactivity) is “over 29 counts per minute per cell”. Besides, the “originally retained 32P isotope released” value in experiment [2] (setting [8]) amounted to 88%. Also, the “originally retained 32P isotope retained by cells” value in experiment [2] (setting [8]) stood at 12%. Also, in experiment [2] (two hours' incubation, variant MA2 vs. variant MA5), the “retention difference between decapeptide variants” value is on record as 70 fold. Besides, the “average cpm of the eleven nonbinding cell lines” value in experiment [6] (two-hour incubation, 10,000 cells, washed three times) came to 365 cpm. In addition, the “mean cpm values of blank wells and nonbinding cell lines” value in experiment [6] (two-hour incubation, washes) is listed as “less than 550 cpm”. Also, the “retention of radioactivity (in words)” value in experiment [7] (five of sixteen cell lines) is reported as “very strong retention of radioactivity”. Moreover, the “initially retained radioactive counts retained by cells” value in experiment [7] (washes, overnight incubation) was “approximately 12%”.

The record behind these values is US20130209359A1, “Small Peptides Specifically Bind to Colorectal Cancers” (The Johns Hopkins University, priority 2007, published 2013).
